Active and inactive are the calls of the source. The calls are words filed in the database; no cut-off is given here. Bounds are passed on as bounds.

For series [1], the system named is Human immunodeficiency virus 1. The series is described as follows: Antiviral activity against HIV1 3B infected in human MT4 cells assessed as reduction in virus-induced cytopathic effect after 5 days by MTT assay. The class given is functional, organism-based. Conditions: Human immunodeficiency virus 1, 3B, MT4, 120 h. For orientation: Protection from cytopathic effect is a common read-out in antiviral testing.

Series [2] in a line: Selectivity index, ratio of CC50 for human MT4 cells to EC50 for HIV1 3B expressing wild type reverse transcriptase. It counts as toxicity. The following applies: read-out: Ratio CC50/EC50.
Series [3] concerns Human immunodeficiency virus 2. Kind of series: Antiviral activity against HIV2 ROD infected in human MT4 cells assessed as reduction in virus-induced cytopathic effect after 5 days by MTT assay. The following applies: ISOLATE ROD. The class given is functional, organism-based.
Series [4] is described as follows: Cytotoxicity against human MT4 cells after 5 days by MTT assay. The class given is cell-based.
Series [5] addresses Human immunodeficiency virus type 1 reverse transcriptase (Human immunodeficiency virus 1, UniProt Q72547). The series is described as follows: Inhibition of recombinant wild-type HIV-1 3B reverse transcriptase p66/p51 RNA-dependent DNA polymerase activity expressed in Escherichia coli JM109 assessed as reduction in dTTP incorporation using poly(rA)/oligo(dT)16 as template/primer after 40 mins by PicoGreen dye based spectrofluorometric analysis.

What is called EC50 is the concentration that produces a half-maximal response. A word on the CC50: it is the concentration at which the toxic effect on the cells reaches its halfway point. A high value points to lower toxicity to the cells. For orientation: IC50 means the concentration at which inhibition is half-maximal. Turning to `Cc1cc(C)cc(S(=O)(=O)n2c(SCC(=O)Nc3ccc(S(N)(=O)=O)cc3)nc3ccccc32)c1`, in series [1], the 50% effective concentration (EC50) is 24 nM. Moreover, the selectivity ratio in series [2] worked out at 1290. Moreover, the result in series [3] was inactive. In addition, in series [4], the CC50 at 120 h worked out at 30.9 µM. For the same compound, the IC50 in series [5] is 0.05 µM.

Take `Cc1cc(C)cc(S(=O)(=O)n2c(SCC(=O)Nc3ccccc3S(C)(=O)=O)nc3ccccc32)c1`: in series [1], the concentration giving a half-maximal response (EC50) was at least 9440 nM. In addition, the selectivity ratio in series [2] was below 1. In addition, in series [3], the outcome was inactive. In series [4], the midpoint of cytotoxicity, the CC50 at 120 h, lay at 9.31 µM. For the same compound, the IC50 in series [5] came out at 60.6 µM.

As to `Cc1ccc(NC(=O)CSc2nc3ccccc3n2S(=O)(=O)c2cc(C)cc(C)c2)cc1`, the EC50 in series [1] was determined as 94 nM. Also, the selectivity ratio in series [2] is 31. For the same compound, the outcome in series [3] was inactive. The CC50 at 120 h in series [4] came to 2.97 µM. In addition, the IC50 in series [5] was found to be 0.091 µM.

For `Cc1cc(C)cc(S(=O)(=O)n2c(SCC(=O)Nc3ccccc3C)nc3ccccc32)c1`, the half-maximal effective concentration (EC50) in series [1] came out at 235 nM. Besides, the selectivity ratio in series [2] was 27. Also, the result in series [3] was inactive. The CC50 at 120 h in series [4] came to 6.15 µM. The 50% inhibitory concentration (IC50) in series [5] stood at 0.222 µM.

For `Cc1cc(C)cc(S(=O)(=O)n2c(OCC(=O)Nc3ccc(S(C)(=O)=O)cc3Cl)nc3ccccc32)c1`, the EC50 in series [1] worked out at 120 nM. The selectivity ratio in series [2] is above 1890. In addition, the outcome in series [3] was inactive. The CC50 at 120 h in series [4] is above 228 µM. Also, in series [5], the IC50 came to 0.76 µM.

With `Cc1cc(C)cc(S(=O)(=O)n2c(SCC(=O)Nc3ccccc3S(N)(=O)=O)nc3ccccc32)c1`, the EC50 in series [1] came out at 2720 nM. The selectivity ratio in series [2] came to 9. The result in series [3] was inactive. For the same compound, the 50% cytotoxic concentration (CC50) at 120 h in series [4] is 25 µM. In addition, the half-maximal inhibitory concentration (IC50) in series [5] came out at 7.68 µM.

Turning to `Cc1cc(C)cc(S(=O)(=O)n2c(OCC(=O)Nc3ccc(S(N)(=O)=O)cc3Cl)nc3ccccc32)c1`, the EC50 in series [1] amounted to 250 nM. Also, the selectivity ratio in series [2] is above 908. For the same compound, the result in series [3] was inactive. This compound also registered a CC50 at 120 h in series [4] above 227 µM. For the same compound, in series [5], the IC50 was 5.84 µM.

Regarding `Cc1cc(C)cc(S(=O)(=O)n2c(OCC(=O)Nc3ccccc3Cl)nc3ccccc32)c1`, the concentration for a half-maximal effect (EC50) in series [1] is 1090 nM. The selectivity ratio in series [2] turned out to be 155. Also, the outcome in series [3] was inactive. Further, it took 169 µM to reach half-maximal cytotoxicity in series [4] (CC50 at 120 h). The half-inhibitory concentration (IC50) in series [5] amounted to 47.3 µM.

For the compound `Cc1cc(C)cc(S(=O)(=O)n2c(SCC(=O)Nc3ccccc3Cl)nc3ccccc32)c1`, the concentration for a half-maximal effect (EC50) in series [1] was 880 nM. The outcome in series [3] was inactive.

As for `COC(=O)c1ccc(NC(=O)COc2nc3ccccc3n2S(=O)(=O)c2cc(C)cc(C)c2)c(Cl)c1`, the EC50 in series [1] was found to be 790 nM. Moreover, the selectivity ratio in series [2] came out at 151. Also, the result in series [3] was inactive. Further, it took 119 µM to reach half-maximal cytotoxicity in series [4] (CC50 at 120 h). The IC50 in series [5] worked out at 5.45 µM.

Turning to `Cc1cc(C)cc(S(=O)(=O)n2c(SCC(=O)Nc3ccc(S(N)(=O)=O)cc3Cl)nc3ccccc32)c1`, in series [3], the result was inactive.

Consider `COC(=O)c1ccc(NC(=O)CSc2nc3ccccc3n2S(=O)(=O)c2cc(C)cc(C)c2)cc1`, for which the concentration giving a half-maximal response (EC50) in series [1] amounted to 51 nM. Also, the selectivity ratio in series [2] was 196. Further, the outcome in series [3] was inactive. This compound also yielded a CC50 at 120 h in series [4] of 10 µM. In addition, the IC50 in series [5] was 0.088 µM.

For the compound `Cc1cc(C)cc(S(=O)(=O)n2c(SCC(=O)Nc3ccc(C(=O)O)cc3)nc3ccccc32)c1`, in series [1], the half-maximal effective concentration (EC50) worked out at 200 nM. The selectivity ratio in series [2] worked out at 577. Also, in series [3], the outcome was inactive. This compound also returned a 50% cytotoxic concentration (CC50) at 120 h in series [4] of 115 µM. In addition, in series [5], the IC50 came out at 0.13 µM.

With `Cc1cc(C)cc(S(=O)(=O)n2c(OCC(=O)Nc3ccccc3Br)nc3ccccc32)c1`, the EC50 in series [1] amounted to 1550 nM. In addition, in series [2], the selectivity ratio is above 157. The result in series [3] was inactive. Moreover, the CC50 at 120 h in series [4] was above 243 µM. Further, the IC50 in series [5] came to 15.7 µM.

In series [4], `O=C1Nc2ccc(Cl)cc2[C@@](C#CC2CC2)(C(F)(F)F)O1` [EFAVIRENZ] had a CC50 at 120 h above 6.33 µM.

On to `Cc1cc(C)cc(S(=O)(=O)n2c(SCC(=O)Nc3ccc(S(C)(=O)=O)cc3Cl)nc3ccccc32)c1`, for which the selectivity ratio in series [2] is 5540. The compound also displayed a CC50 at 120 h in series [4] of at least 222 µM.

Regarding `Cc1cc(C)cc(S(=O)(=O)n2c(SCC(=O)Nc3ccccc3Br)nc3ccccc32)c1`, the selectivity ratio in series [2] is above 3930. Moreover, the result in series [3] was inactive. This compound also came in with a CC50 at 120 h in series [4] of at least 236 µM.

Take `Cc1cc(C)cc(S(=O)(=O)n2c(SCC(=O)Nc3ccccc3C(=O)O)nc3ccccc32)c1`: in series [1], the half-maximal effective concentration (EC50) stood at 6830 nM. Besides, the selectivity ratio in series [2] came out at 4. Moreover, in series [3], the outcome was inactive. This compound had a CC50 at 120 h in series [4] of 25.2 µM. Further, the IC50 in series [5] was 21.3 µM.

Turning to `Cc1cc(C)cc(S(=O)(=O)n2c(SCC(=O)Nc3ccc(S(C)(=O)=O)cc3)nc3ccccc32)c1`, in series [1], the 50% effective concentration (EC50) is 28 nM. Further, the selectivity ratio in series [2] came to 385. In series [3], the result was inactive. The compound also returned a cytotoxic concentration (CC50) at 120 h in series [4] of 10.6 µM. The concentration for half-maximal inhibition (IC50) in series [5] was determined as 0.047 µM.

The compound `Cc1ccnc2c1NC(=O)c1cccnc1N2C1CC1` [NEVIRAPINE] gave a CC50 at 120 h in series [4] above 15 µM.

As for `COC(=O)c1ccccc1NC(=O)CSc1nc2ccccc2n1S(=O)(=O)c1cc(C)cc(C)c1`, the EC50 in series [1] is at least 1060 nM. In addition, the selectivity ratio in series [2] is below 5. In addition, the outcome in series [3] was inactive. This compound yielded a CC50 at 120 h in series [4] of 5.22 µM. In series [5], the IC50 stood at 15.7 µM.

With `COC(=O)c1ccc(NC(=O)CSc2nc3ccccc3n2S(=O)(=O)c2cc(C)cc(C)c2)c(Cl)c1`, the result in series [3] was inactive. This compound returned a CC50 at 120 h in series [4] of 145 µM.

For the origin of these results see ChEMBL document CHEMBL4184199, “Structural optimization of N1-aryl-benzimidazoles for the discovery of new non-nucleoside reverse transcriptase inhibitors active against wild-type and mutant HIV-1 strains” (Bioorg Med Chem, 2018).
